# In patent publication US20050203011A1, “Mitigating symptoms and behaviors of substance abuse by modulating GDNF or BDNF pathway activity” (The Regents of the University of California, priority 2003, published 2005):
# Experiments:
# rats [1] = assay: Ethanol operant self-administration after systemic ibogaine; type: in vivo, rat; details: 40 mg/kg i.p., 3 hours prior to session
# Text: Rats were water restricted, and then trained to lever press for a 10 S/10 E reinforcer solution in 3 overnight sessions. On the 4th day, rats were allowed ad libitum access to water in the home cage, and were transferred to 1-hour daily sessions wherein responses were reinforced with 5 S/10 E on a fixed-ratio 3 (FR3) schedule. Sucrose was phased out of the reinforcer solution over the next 7 days until the solution consisted of 10 E only. Experimental manipulations began after 30 sessions when stable 10 E intake of >0.4 g/kg ethanol was attained.
# DBA mice = assay: Conditioned place preference test (CPP); type: in vivo, mouse; details: ibogaine 40 mg/kg i.p. during CPP acquisition, before expression, or both
# Procedure: The CPP apparatus (Med Associates) consisted of two visually distinctive conditioning compartments connected by a smaller center compartment. The CPP procedure consisted of three phases: preconditioning (Day 1), conditioning (Days 2-9), and post-conditioning (Day 10). On Day 1, mice were placed into the center compartment and allowed free access to both conditioning compartments for 30 minutes. […] Mice were given access to one conditioning chamber for 5 minutes immediately after injection or 3 h after injection. […] Control subjects received saline in both conditioning chambers. […] Ethanol treatment was followed by placement within one conditioning chamber, alternated with saline treatment and placement into the other conditioning chamber, as described above. On Day 10, animals were tested for CPP by allowing free access to both conditioning compartments for 30 minutes. Photocell counts provided a measure of locomotor activity as well as time spent in each compartment
# rats [2] = assay: VTA microinjection of ibogaine, ethanol operant self-administration; type: in vivo, rat
# Procedure: After ethanol self-administration was established as described above, subjects attained a mean daily intake of ethanol of 0.62±0.07 g/kg. Bilateral guide cannula (26 gauge, Plastics One) were implanted into the VTA (5.6 mm posterior to bregma, 1.0 mm mediolateral, 8.0 mm ventral to the skull surface). After 7 to 10 days recovery, sham injections were conducted prior to ethanol self-administration sessions to habituate subjects to the microinjection procedure. […] Injection cannulae were left in place for an additional 2 minutes to allow for diffusion of the drug. Three, 24 and 48 hours post injection, rats were placed into the self-administration chambers for a 1-hour self-administration session.
# GDNF [3] = assay: GDNF expression in the midbrain after i.p. ibogaine (RT-PCR), mice; type: in vivo, mouse; details: 40 mg/kg i.p., 1, 6 or 12 h post injection
# Procedure: Total RNA was isolated using Trizol reagent and reverse transcribed using Reverse Transcription System kit with the oligo (dT)15 primer at 42ûC for 30 minutes. GDNF, Actin or GPDH expressions were analyzed by RT-PCR. The GDNF primers were based on the coding frame of the human GDNF gene: upstream, 5′-TGCCAGAGGATTATCCTGATCAGTTCG ATG3′ (SEQ ID NO: 1); and downstream, 5′-TTGTCGTACGTTGTCTCAGCTGCATCGCAA-3′ (SEQ ID NO:2). The Actin primers were based on the human Actin gene: upstream, 5′-TCATGAAGTGTGACGTTGACATC-3′ (SEQ ID NO:3); and downstream, 5′-AGAAGCATTTGCGGTGGACGATG-3′ (SEQ ID NO:4). The GPDH primers were based on the rat GPDH gene: upstream, 5′-TGAAGGTCGGTGTCAACGGATTTGGC-3′ (SEQ ID NO:5); and downstream, 5′-CATGTAGGCCATGAGGTCCACCAC-3′ (SEQ ID NO:6). PCR conditions were optimized to specifically ensure that the amplification reactions are within the linear range by testing a range of 25-40 PCR cycles. The optimal numbers of cycles used were: 30 cycles for controls GPDH and actin and 35 cycles for GDNF.
# Male C57B16 mice or Long Evans rats were habituated with 3 saline injections over 3 days followed by i.p. administration of 40 mg/kg ibogaine-HCl. The animals were sacrificed 1, 6 or 12 hours post injection, and brain regions were excised and stored at −80° C. until use for analysis of GDNF expression by RT-PCR.
# GDNF [4] = assay: GDNF secretion into medium of SHSY5Y cells (ELISA); type: cell-based, human; details: 10 μM
# Text: GDNF secretion in the medium was detected using GDNF Emax Immunoassay System according to (Balkowiec and Katz, 2000). GDNF concentration was interpolated from the standard curves (linear range of 15.6-1000 pg/ml).
# [5] = tested on: Ret association with GFRα1; assay: Ret association with GFRα1 in SHSY5Y cells (immunoprecipitation, Western blot); type: cell-based, human; details: 3 hours
# Procedure: (§1) Expression of GDNF and control Actin were analyzed by RT-PCR (n=4). […] GDNF in the media was detected by an ELISA assay. Histogram depicts the mean±SD of GDNF secretion in 3 experiments. […] Ret was immunoprecipitated with anti-Ret antibodies followed by Western blot analysis with anti GFRα1 antibodies. The levels of GFRα1 in the homogenates were determined by Western blot analysis (n=3). […] Ret was immunoprecipitated followed by Western blot analysis with anti-phospho tyrosine or anti-Ret antibodies (n=3). […] Trk phosphorylation was analyzed by Western blot analysis with anti-phospho-Trk antibodies. The levels of TrkB were also determined by Western blot analysis (n=3). Panel F: Cells were pre-incubated with 0.3 unit/ml PI-PLC for 1 h (lanes 3 and 4). […] Ret phosphorylation was determined as described above (n=4). […] Treatment with 50 ng/ml GDNF was used as a positive control (lane 5). The cells were lysed and Ret phosphorylation was analyzed as described above (n=3).
# Cells were collected and lysed in RIPA buffer (50 mM Tris-Cl, pH 7.6, 150 mM NaCl, 1 % NP40, 0.1% SDS, 0.5% sodium deoxycholate, 2 mM EDTA, protease inhibitor cocktail and 10 mM sodium orthovanadate). Homogenates were incubated with 5 N^og anti-Ret antibody in TBS-T buffer (20 mM Tris-Cl, pH7.6, 137 mM NaCl and 1% NP-40) overnight at 4° C., followed by 2 hours incubation with Protein G agarose. […]
# Trk = Trk phosphorylation in SHSY5Y cells; type: cell-based, human; details: 10 μM ibogaine 3 hours
# Procedure: as §1
# ERK1/2 = ERK1/2 phosphorylation in SHSY5Y cells; type: cell-based, human; details: 10 μM ibogaine
# Procedure: ERK2 and pERK1/2 were detected by Western blot analysis with anti-ERK2 and pERK1/2 antibodies respectively. Line-graph depicts the mean ratio (pERK2/ERK2)±SD of 3 experiments. […] Panel C: Cells were pre-incubated with 0.3 unit/ml PI-PLC for 1 h (lane 3).
substance,measurement,setting,value
12-methoxyibogamine [ibogaine],responding at the ethanol-paired lever,rats [1],decreased
same,rewarding properties of ethanol (ethanol-induced CPP),DBA mice,not altered
same,lever responding for ethanol,"rats [2]; intra-VTA 0.1 μM, any tested time point",did not differ from responding following vehicle
same,"lever presses for ethanol, return to baseline",rats [2]; intra-VTA 10 μM,did not return to baseline levels within 48 hours
same,lever responding for ethanol,"rats [2]; intra-VTA 10 μM, 3, 24 and 48 hours, vs vehicle",significantly reduced responding at all time points
same,ethanol-paired lever pressing,"rats [2]; intra-VTA 0.1, 1.0 and 10.0 μM/0.5 μl, 3 hours before session, dose-dependent",significantly decreased
same,expression of GDNF in the midbrain,GDNF [3],increase
same,GDNF levels in the media (secretion),GDNF [4],accumulated in the media in a time-dependent manner
same,GFRα1 protein levels,[5],not due to increased GFRα1 protein levels
same,Ret association with GFRα1,[5],increased
same,phosphorylation state of Trk,Trk,no change
same,duration of ERK1/2 activation,ERK1/2,up to 6 hours
same,phosphorylation of ERK1/2,ERK1/2,induced
